Where “and” joins values, the source holds several entries; their conditions need not be identical. Identical values can stand only once.
Test system: PPC-1 thapsigargin-induced death, ATPlite luminescence, 24 h
Test: protection of PPC-1 cells from thapsigargin, SAR follow-up, human prostate cancer PPC-1, ATP luminescence (AID 1351)
Details: at 25 µM, stronger effect = higher value
[1] = measured here: survival at thapsigargin 15 uM
[2] = measured here: survival at thapsigargin 20 uM
[3] = survival at lower thapsigargin concentration

Row | SMILES | survival [%] | survival [1] [%] | survival [2] [%] | survival [3]
1 | COc1ccc(C2CC(=O)C3=C(C2)Nc2ccccc2NC3c2cccc(Br)c2)cc1OC (centres undefined) | 85 | 102 | 59 | 94% and 100%
2 | CCOc1cccc(C2Nc3ccccc3NC3=C2C(=O)CC(c2ccc(OC)cc2)C3)c1 (centres undefined) | 39 | 14 | 15 | 81% and 87%
3 | COc1ccc(C2CC(=O)C3=C(C2)Nc2ccccc2NC3c2ccccc2C(F)(F)F)cc1OC (centres undefined) | 105 | 108 | 56 | 97% and 102%
4 | CCCOc1ccc(C2Nc3ccccc3NC3=C2C(=O)CC(c2ccc(OC)c(OC)c2)C3)cc1 (centres undefined) | 90 | 75 | 37 | 82% and 81%
5 | CCOc1cc(C2Nc3ccccc3NC3=C2C(=O)CC(c2ccc(OC)cc2)C3)cc(Cl)c1O (centres undefined) | 62 | 11 | 8.5 | 82% and 90%
6 | COc1ccc(C2CC(=O)C3=C(C2)Nc2ccccc2NC3c2cc(C)ccc2C)cc1 (centres undefined) | 88 | 83 | 32 | 85% and 91%
7 | CSc1ccc(C2Nc3ccccc3NC3=C2C(=O)CC(c2ccccc2)C3)cc1 (centres undefined) | 89 | 52 | 26 | 95% and 105%
8 | O=C1CC(c2ccccc2)CC2=C1C(c1c(F)cccc1Cl)Nc1ccccc1N2 (centres undefined) | 90 | 35 | 18 | 86% and 92%
9 | COc1ccc(C2CC(=O)C3=C(C2)Nc2ccccc2NC3c2cccc(C(F)(F)F)c2)cc1OC (centres undefined) | 94 | 99 | 69 | 93% and 94%
10 | CC1(C)CC(=O)C2=C(C1)Nc1ccccc1NC2c1ccc(-c2ccccc2)cc1 (centres undefined) | 90 | 86 | 87 | 81% and 101%
11 | COc1ccc(C2CC(=O)C3=C(C2)Nc2ccccc2NC3c2cccc(Oc3ccccc3)c2)cc1OC (centres undefined) | 89 | 95 | 69 | 91% and 92%
